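Five compound concentrations were applied to cells in 96-well plates for 48 hours; endpoints were derived by simple linear interpolation of the resulting dose-response curve. The concentration for 50% growth inhibition is given as GI50. TGI: concentration producing complete growth inhibition.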

One assay concerns T-47D breast. The experiment in a line: growth of human tumour cells (NCI), 48 h.
On to `COc1cc(-c2nn(-c3cccc(NC(=O)Nc4ccc(Cl)c(Cl)c4)c3)cc2-c2ccncc2)ccc1Cl`, for which the GI50 is 1.42 µM and the TGI is greater than 50 µM.
`COc1ccc2[nH]cc(-c3nc(-c4c[nH]c5ncccc45)cs3)c2c1`: the GI50 was 6.47 µM and the TGI is greater than 100 µM.
`CCOC(=O)C(=Cc1cccc(Cl)c1)C(=O)OCC`: the GI50 was 1.78 µM and the TGI turned out to be 4.26 µM.
Consider `O=c1cc(-c2ccccc2)[nH]c2c(S)cccc12`, for which the TGI was greater than 100 µM.

The subject of another assay is LOX IMVI melanoma. The experiment in a line: growth of human tumour cells (NCI), 48 h.
Turning to `Nc1nccc2c1ccn2-c1ccc(NC(=O)c2ccc(N3CCOCC3)c(C(F)(F)F)c2)cc1`, the GI50 was 0.331 µM and the TGI was found to be 1.48 µM.
`Cc1[nH]c2ccccc2c1-c1cc(-c2cc(-c3c(C)[nH]c4ccccc34)on2)no1` registered a TGI greater than 100 µM.
Consider `Cn1cnc([N+](=O)[O-])c1S(=O)(=O)Oc1ccccc1`, for which the GI50 is 3.3 µM and the TGI is 9.9 µM.
As for `COc1cc(C2c3cc4c(cc3C(O)C(CO)C2CO)OCO4)cc(OC)c1OC` (centres undefined), the GI50 is 0.656 µM and the TGI is greater than 100 µM.
Compound `CCCNC(=S)/N=C/c1c(O)c2ccccc2[nH]c1=O` showed a TGI greater than 100 µM.
In turn, `COC1C(O)=C2C(=O)O/C(C)=C/C=C/C=C/C=C\CC(c3ccccc3)NC(=O)\C=C/C=C\C=C\C=C\[C@@]2(C)[C@@H]1O` (some centres undefined) displayed a TGI of 1.09 µM.
Turning to `COC12C=C/C(=C(/C(=O)OCc3ccncc3)C(=O)CCCCCCCCC3(OC)C=C/C(=C(/C(=O)OCc4ccncc4)C(=O)CCCCCCCC1)O3)O2`, the GI50 is 0.107 µM and the TGI was 0.264 µM.
On to `CC(C)=CCc1cc(O)cc2c1OC(C=C(C)C)C1=C2C(=O)C2=C(NCCS2(=O)=O)C1=O` (centres undefined), for which the GI50 was 2.04 µM and the TGI was 5 µM.
Consider `NS(=O)(=O)c1ccc(N(/C=C/C(=O)C(F)(F)F)CC(=O)c2ccc(Cl)cc2)cc1`, for which the GI50 is 31.2 µM and the TGI worked out at 98.9 µM.
For `C1CSCCSCCS1`, the TGI was greater than 100 µM.
On to `N#C/C=C(\c1ccc([N+](=O)[O-])cc1)n1nnc2cc(Cl)c(Cl)cc21`, for which the GI50 is 1.67 µM and the TGI was 3.19 µM.
As for `CC1(C)OCCn2c1nc1c(N3CCOCC3)nc(-c3cnc(N)nc3)nc12`, the GI50 was 0.265 µM and the TGI is greater than 27.4 µM.
Regarding `CC1=CC(=O)[C@@H](O)[C@]2(C)[C@H]3[C@@]4(O)OC[C@]35[C@H]([C@@H](C)[C@H]4O)[C@@H](O)C(=O)O[C@@H]5C[C@@H]12`, the TGI amounted to 0.62 µM.
Consider `COc1cc(-c2nn(-c3cccc(NC(=O)Nc4ccc(Cl)c(Cl)c4)c3)cc2-c2ccncc2)ccc1Cl`, for which the GI50 is 0.953 µM and the TGI turned out to be 2.62 µM.
In the case of `COc1ccc2[nH]cc(-c3nc(-c4c[nH]c5ncccc45)cs3)c2c1`, the GI50 was 2.83 µM and the TGI was greater than 100 µM.
The corresponding values for `CCOC(=O)C(=Cc1cccc(Cl)c1)C(=O)OCC` are 1.65 µM and 3.12 µM.

Another assay concerns 786-0 renal. Briefly: growth of human tumour cells (NCI), 48 h.
In the case of `Nc1nccc2c1ccn2-c1ccc(NC(=O)c2ccc(N3CCOCC3)c(C(F)(F)F)c2)cc1`, the GI50 is 0.207 µM and the TGI was 0.529 µM.
Turning to `Cc1[nH]c2ccccc2c1-c1cc(-c2cc(-c3c(C)[nH]c4ccccc34)on2)no1`, the TGI was greater than 100 µM.
Take `Cn1cnc([N+](=O)[O-])c1S(=O)(=O)Oc1ccccc1`: the GI50 is 25.1 µM and the TGI came to 55.6 µM.
Consider `COc1cc(C2c3cc4c(cc3C(O)C(CO)C2CO)OCO4)cc(OC)c1OC` (centres undefined), for which the GI50 was 6.59 µM and the TGI is greater than 100 µM.
In turn, `CCCNC(=S)/N=C/c1c(O)c2ccccc2[nH]c1=O` had a TGI greater than 100 µM.
For `COC1C(O)=C2C(=O)O/C(C)=C/C=C/C=C/C=C\CC(c3ccccc3)NC(=O)\C=C/C=C\C=C\C=C\[C@@]2(C)[C@@H]1O` (some centres undefined), the TGI turned out to be 0.148 µM.
For `COC12C=C/C(=C(/C(=O)OCc3ccncc3)C(=O)CCCCCCCCC3(OC)C=C/C(=C(/C(=O)OCc4ccncc4)C(=O)CCCCCCCC1)O3)O2`, the GI50 was 0.354 µM and the TGI turned out to be 1.19 µM.
Turning to `CC(C)=CCc1cc(O)cc2c1OC(C=C(C)C)C1=C2C(=O)C2=C(NCCS2(=O)=O)C1=O` (centres undefined), the GI50 was 2.93 µM and the TGI is 7.11 µM.
Consider `NS(=O)(=O)c1ccc(N(/C=C/C(=O)C(F)(F)F)CC(=O)c2ccc(Cl)cc2)cc1`, for which the GI50 is 45.2 µM and the TGI was greater than 100 µM.
`C1CSCCSCCS1` yielded a TGI greater than 100 µM.
`N#C/C=C(\c1ccc([N+](=O)[O-])cc1)n1nnc2cc(Cl)c(Cl)cc21`: the GI50 was 2.09 µM and the TGI was 3.58 µM.
Turning to `CCN(CC)CCOc1ccc(/C=C2\CC3C4CC=C5C[C@@H](O)CC[C@]5(C)C4CC[C@]3(C)C2=O)cc1OC` (some centres undefined), the GI50 is 1.92 µM and the TGI came to 3.66 µM.
As to `CC1(C)OCCn2c1nc1c(N3CCOCC3)nc(-c3cnc(N)nc3)nc12`, the GI50 was 0.344 µM and the TGI stood at 5.09 µM.
The compound `CC1=CC(=O)[C@@H](O)[C@]2(C)[C@H]3[C@@]4(O)OC[C@]35[C@H]([C@@H](C)[C@H]4O)[C@@H](O)C(=O)O[C@@H]5C[C@@H]12` displayed a TGI of 2.13 µM.
For `COc1cc(-c2nn(-c3cccc(NC(=O)Nc4ccc(Cl)c(Cl)c4)c3)cc2-c2ccncc2)ccc1Cl`, the GI50 is 1.31 µM and the TGI stood at 4.48 µM.
Turning to `COc1ccc2[nH]cc(-c3nc(-c4c[nH]c5ncccc45)cs3)c2c1`, the GI50 was 1.97 µM and the TGI was greater than 100 µM.
As to `CCOC(=O)C(=Cc1cccc(Cl)c1)C(=O)OCC`, the GI50 is 1.93 µM and the TGI was 4.26 µM.
Consider `O=c1cc(-c2ccccc2)[nH]c2c(S)cccc12`, for which the TGI was greater than 100 µM.

In another assay the test system is BT-549 breast. Briefly: growth of human tumour cells (NCI), 48 h.
Turning to `Nc1nccc2c1ccn2-c1ccc(NC(=O)c2ccc(N3CCOCC3)c(C(F)(F)F)c2)cc1`, the GI50 was 1.03 µM and the TGI stood at 24.7 µM.
Compound `Cc1[nH]c2ccccc2c1-c1cc(-c2cc(-c3c(C)[nH]c4ccccc34)on2)no1` registered a TGI greater than 100 µM.
Take `Cn1cnc([N+](=O)[O-])c1S(=O)(=O)Oc1ccccc1`: the GI50 was 20.7 µM and the TGI was found to be 45.4 µM.
